Data published in patent publication US9580430B2, “9H-pyrimido[4,5-B]indoles and related analogs as BET bromodomain inhibitors” (THE REGENTS OF THE UNIVERSITY OF MICHIGAN, priority 2014, dated 2017).
Where two headings read alike, the source gives them in different places.

Key:
[1] = tested on: MOLM-13; assay: Cell growth inhibition, MOLM-13 leukemia cells (CellTiter-Glo); format: cell-based; details: Homo sapiens, MOLM-13, 96 h; 4 days; read-out: IC50 (nM) MOLM-13 Cell Line (CellTiter-Glo assay)
How it was run: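 Luminescent ATP-based viability (CellTiter-Glo, 10-20 min at room temperature) in compound-treated MOLM-13 cells; the half-maximal inhibitory concentration was calculated from the readout.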

[2] = target: T1, recombinant BRD4 BD1 (Homo sapiens, UniProt O60885); assay: Competitive fluorescence-polarization (FP) binding assay, BRD4 BD1; details: for Ki: read-out: Binding affinities (FP) BRD4BD1 Ki; as to IC50 (nM) BRD4 BD1: probe 1.5 nM
T1 construct: for recombinant BRD4 BD1 and BRD4 BD2 proteins
How it was run: (§1)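 Buffer: 100 mM potassium phosphate, pH 6.5, 0.01% Triton X-100; compounds added in buffer with 40% ethylene glycol to preformed complex of fluorescent probe with BRD4 BD1 (10 nM final) or BD2 (6 nM final). After 30 min at room temperature, polarization read. IC50 from nonlinear fits of competition curves, with Ki.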

[3] = tested on: MDA-MB-436; assay: Cell growth inhibition, MDA-MB-436 breast cancer cells (WST-8); format: cell-based; details: Homo sapiens, 4 days
How it was run: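 IC50 was computed from WST-8-based cell counting in MDA-MB-436 cells, with absorbance read at 450 nm.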

[4] = tested on: VCaP prostate cancer cells; assay: Cell growth inhibition, VCaP prostate cancer cells (Cell-Titer GLO); format: cell-based; details: Homo sapiens, VCaP; 96 h incubation; read-out: IC50 (nM) VCaP Cell Line (CellTiter-Glo assay)
Method: For prostate cancer cell lines, VCaP prostate cancer cells were grown in DMEM with Glutamax (Gibco) supplemented with 10% FBS (Invitrogen) in 5% CO2 cell culture incubator. All cell lines were tested and found to be free of mycoplasma contamination. Cells were seeded in 96-well plates at 2,000-10,000 cells per well (optimum density for growth) in a total volume of […] media containing 10% FBS. Serially diluted compounds in […] media were added to the cells 12 h later. […] The values were normalized and IC50 was calculated using GraphPad Prism software.
Cells were seeded in 96-well plates at 2000-10,000 cells/well (optimum density for growth) in a total volume of 100 μl media containing 10% FBS. Serially diluted compounds in 100 μl media were added to the cells 12 h later. Following 96 h. incubation, cell viability was assessed by Cell-Titer GLO (Promega). The values were normalized and IC50 was calculated using GraphPad Prism software. […] After 12 days cells were fixed with methanol, stained with crystal violet and photographed. For colorimetric assays, the stained wells were treated with 500 μl 10% acetic acid and the absorbance was measured at 560 nm using a spectrophotometer.

[5] = target: T2, recombinant BRD4 BD2 (Homo sapiens, UniProt O60885); assay: Competitive fluorescence-polarization (FP) binding assay, BRD4 BD2; details: for Ki: read-out: Binding affinities (FP) BRD4BD2 Ki; as to IC50 (nM) BRD4 BD2: probe 1.5 nM
T2 construct: for recombinant BRD4 BD1 and BRD4 BD2 proteins
How it was run: as §1

[6] = tested on: LNCaP; assay: Cell growth inhibition, LNCaP prostate cancer cells (Cell-Titer GLO); format: cell-based; details: Homo sapiens, read-out: Cellular data LNCaP IC50
[7] = competitive FP assay, protein 10 nM, probe […], read-out: IC50 (nM) BRD4 BD1
[8] = MDA-MB-436, 96 h, read-out: IC50 (nM) MDA-MB-436 Cell Line (WST assay)
[9] = competitive FP assay, protein 6 nM, probe […], read-out: IC50 (nM) BRD4 BD2
[10] = FP competitive binding, BRD4 BD1, read-out: Binding affinities (FP) BRD4BD1 IC50
[11] = FP competitive binding, BRD4 BD1
[12] = 96 h, MDA-MB-436 cells, read-out: Cellular data MDA-MB-436 IC50
[13] = FP competitive binding, BRD4 BD2, read-out: Binding affinities (FP) BRD4BD2 IC50
[14] = FP competitive binding, BRD4 BD2

Row | Structure (SMILES) | IC50 [1] [nM] | IC50 [2, 7] [nM] | IC50 [3, 8] [nM] | IC50 [4] [nM] | IC50 [5, 9] [nM] | IC50 [2, 10] [nM] | Ki [2, 11] [µM] | IC50 [3, 12] [nM] | IC50 [5, 13] [nM] | Ki [5, 14] [µM] | IC50 [6] [µM]
1 | COc1cc2c(cc1-c1c(C)noc1C)[nH]c1nc(C)nc(Nc3c4c(nn3C(C)C)CCC4)c12 [Cpd. No. 137, 7-(3,5-Dimethylisoxazol-4-yl)-N-(2-isopropyl-2,4,5,6-tetrahydrocyclopenta[c]pyrazol-3-yl)-6-methoxy-2-methyl-9H-pyrimido[4,5-b]indol-4-amine] | 4.3 | 4.5 | 11.3 | 23.4 | 1.2 | – | – | – | – | – | –
2 | CCn1nc2c(c1Nc1nc(C)nc3[nH]c4cc(-c5c(C)noc5C)c(OC)cc4c13)CCC2 [Cpd. No. 141, 7-(3,5-Dimethylisoxazol-4-yl)-N-(2-ethyl-2,4,5,6-tetrahydrocyclopenta[c]pyrazol-3-yl)-6-methoxy-2-methyl-9H-pyrimido[4,5-b]indol-4-amine] | 1.6 | 4.6 | 13.6 | 19.3 | 1.1 | – | – | – | – | – | –
3 | CCn1nc(C2CC2)cc1Nc1nc(C)nc2[nH]c3cc(-c4c(C)noc4C)c(OC)cc3c12 [Cpd. No. 144, N-(3-Cyclopropyl-1-ethyl-1H-pyrazol-5-yl)-7-(3,5-dimethylisoxazol-4-yl)-6-methoxy-2-methyl-9H-pyrimido[4,5-b]indol-4-amine] | 3 | 2.1 | 14.5 | 53.8 | 0.7 | – | – | – | – | – | –
4 | COc1cc2c(cc1-c1c(C)noc1C)[nH]c1nc(C)nc(Nc3c(C)c(C)nn3C(C)(C)C)c12 [Cpd. No. 185, N-(1-(tert-butyl)-3,4-dimethyl-1H-pyrazol-5-yl)-7-(3,5-dimethylisoxazol-4-yl)-6-methoxy-2-methyl-9H-pyrimido[4,5-b]indol-4-amine] | 17 | 4.9 | 71 | 64.7 | 12.3 | – | – | – | – | – | –
5 | COc1cc2c(cc1-c1c(C)noc1C)[nH]c1nc(CS(C)(=O)=O)nc(Nc3cc(C4CC4)nn3C)c12 [Cpd. No. 289, N-(3-cyclopropyl-1-methyl-1H-pyrazol-5-yl)-7-(3,5-dimethylisoxazol-4-yl)-6-methoxy-2-((methylsulfonyl)methyl)-9H-pyrimido[4,5-b]indol-4-amine] | – | – | – | – | – | 2.4 | < 0.001 | 57 | 2.2 | < 0.001 | 0.13
6 | CCn1nc(C2CC2)cc1Nc1nc(N)nc2[nH]c3cc(-c4c(C)noc4C)c(OC)cc3c12 [Cpd. No. 290, N4-(3-cyclopropyl-1-ethyl-1H-pyrazol-5-yl)-7-(3,5-dimethylisoxazol-4-yl)-6-methoxy-9H-pyrimido[4,5-b]indole-2,4-diamine] | – | – | – | – | – | 4.8 | < 0.001 | 19 | 4.5 | < 0.001 | 0.012
7 | COc1cc2c(cc1-c1c(C)noc1C)[nH]c1nc(N)nc(Nc3cc(C4CC4)nn3C3CC3)c12 [Cpd. No. 291, N4-(1,3-dicyclopropyl-1H-pyrazol-5-yl)-7-(3,5-dimethylisoxazol-4-yl)-6-methoxy-9H-pyrimido[4,5-b]indole-2,4-diamine] | – | – | – | – | – | 5.2 | 0.0015 | 37 | 4.9 | 0.001 | 0.02
8 | COc1cc2c(cc1-c1c(C)noc1C)[nH]c1nc(N)nc(Nc3c4c(nn3C(C)C)CCC4)c12 [Cpd. No. 292, 7-(3,5-dimethylisoxazol-4-yl)-N4-(2-isopropyl-2,4,5,6-tetrahydrocyclopenta[c]pyrazol-3-yl)-6-methoxy-9H-pyrimido[4,5-b]indole-2,4-diamine] | – | – | – | – | – | 2 | < 0.001 | 12 | 2.3 | < 0.001 | 0.007
9 | COc1c(-c2c(C)noc2C)cc2[nH]c3nc(C)nc(Nc4cc(C5CC5)nn4C)c3c2c1F [Cpd. No. 305] | – | – | – | – | – | > 5000 | – | 1190 | 850 | 0.342 | 1.17
10 | COc1c(-c2c(C)noc2C)cc2[nH]c3nc(C)nc(N(C)c4cc(C5CC5)nn4C)c3c2c1F [Cpd. No. 306, N-(3-cyclopropyl-1-methyl-1H-pyrazol-5-yl)-7-(3,5-dimethylisoxazol-4-yl)-5-fluoro-6-methoxy-N,2-dimethyl-9H-pyrimido[4,5-b]indol-4-amine] | – | – | – | – | – | 129 | 0.03 | 67 | 43 | 0.01 | 0.534
11 | COc1cc2c([nH]c3nc(C)nc(Nc4cc(C5CC5)nn4C)c32)c(F)c1-c1c(C)noc1C [Cpd. No. 307, N-(3-cyclopropyl-1-methyl-1H-pyrazol-5-yl)-7-(3,5-dimethylisoxazol-4-yl)-8-fluoro-6-methoxy-2-methyl-9H-pyrimido[4,5-b]indol-4-amine] | – | – | – | – | – | 16 | 0.0038 | 130 | 18 | 0.0043 | 0.059
12 | COc1cc2c([nH]c3nc(C)nc(N(C)c4cc(C5CC5)nn4C)c32)c(F)c1-c1c(C)noc1C [Cpd. No. 308, N-(3-cyclopropyl-1-methyl-1H-pyrazol-5-yl)-7-(3,5-dimethylisoxazol-4-yl)-8-fluoro-6-methoxy-N,2-dimethyl-9H-pyrimido[4,5-b]indol-4-amine] | – | – | – | – | – | 23 | 0.005 | 181 | 25 | 0.0053 | 0.106
13 | COc1cc2c([nH]c3ccnc(Nc4cc(C5CC5)nn4C)c32)c(F)c1-c1c(C)noc1C [Cpd. No. 309, N-(3-cyclopropyl-1-methyl-1H-pyrazol-5-yl)-7-(3,5-dimethylisoxazol-4-yl)-6-fluoro-8-methoxy-5H-pyrido[4,3-b]indol-1-amine] | – | – | – | – | – | 18 | 0.0041 | 141 | 40 | 0.013 | 0.136
14 | COc1cc2c(cc1-c1c(C)noc1C)[nH]c1cncc(Nc3cc(C4CC4)nn3C)c12 [Cpd. No. 323, N-(3-Cyclopropyl-1-methyl-1H-pyrazol-5-yl)-7-(3,5-dimethylisoxazol-4-yl)-6-methoxy-9H-pyrido[3,4-b]indol-4-amine] | – | – | – | – | – | 11.8 | 0.0016 | 15 | 5.9 | 0.0012 | 0.021
15 | COc1nc2c(cc1-c1c(C)noc1C)[nH]c1nc(C)nc(Nc3cc(C4CC4)nn3C)c12 [compound 322, N-(3-cyclopropyl-1-methyl-1H-pyrazol-5-yl)-7-(3,5-dimethylisoxazol-4-yl)-6-methoxy-2-methyl-9H-pyrido[2′,3′:4,5]pyrrolo[2,3-d] pyrimidin-4-amine] | – | – | – | – | – | 199 | 0.068 | 646 | 214 | 0.067 | 0.674
